# Laboratory results published in patent US9101137B2 (priority 2011, dated 2015).
# Read-outs that look alike come from different tables or passages of the source.
# Tests used:
# Type in all cases: in vivo, Magnaporthe grisea
# rice blast disease [1] = details: application concentration 10 ppm; rice (Nanatsuboshi), spray; lesion area after 6 days; average of duplicate
# rice blast disease [2] = details: application concentration 20 ppm; rice (Nanatsuboshi), spray; lesion area after 5 days
# rice blast disease [3] = details: application concentration 50 ppm; rice (Nanatsuboshi), spray; lesion area after 6 days
smiles,measurement,setting,value
"COC(=O)NCc1cc(/C(C)=N/OCc2cccc(C)n2)ccc1Cl [Pyribencarb, pyribencarb]",Control value,rice blast disease [1],18.8
same,Control value,rice blast disease [2],40.0
same,Control value,rice blast disease [3],86.0
